{
  "source": "the supplement of paper PMC10307832",
  "assay_in_all_cases": "relative viability (nuclei count vs DMSO), 5 days (fraction); higher = more cells survive",
  "key": {"TPCA-1 + Foretinib": {"compound": "C1=CC(=CC=C1C2=CC(=C(S2)NC(=O)N)C(=O)N)F [TPCA-1] + COc1cc2c(Oc3ccc(NC(=O)C4(C(=O)Nc5ccc(F)cc5)CC4)cc3F)ccnc2cc1OCCCN1CCOCC1 [Foretinib] (partner 0.25 µM)", "outline": "(§1)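 Relative viability divides the nuclei count in treated wells by that in vehicle wells. Lung cancer cell lines were seeded in 1536-well plates, dosed by pin tool the next day, and fixed and stained after 5 days in one step with final 0.05% Triton X-100, 1% formaldehyde and 1 ug/ml Hoechst. Dosing was a single drug or a fixed anchor-drug dose plus five library-drug doses (not always all listed) in √10 steps, and values are medians of duplicate plates imaged at 4×.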"}, "TPCA-1 + Decitabine": {"compound": "C1=CC(=CC=C1C2=CC(=C(S2)NC(=O)N)C(=O)N)F [TPCA-1] + Nc1ncn([C@H]2C[C@H](O)[C@@H](CO)O2)c(=O)n1 [Decitabine] (partner 2 µM)", "outline": "as §1"}, "[1]": {"compound": "C[C@]12O[C@H](C[C@]1(O)CO)n1c3ccccc3c3c4c(c5c6ccccc6n2c5c31)CNC4=O [Lestaurtinib] + C[C@]1(O)C[C@@H](c2nc(-c3ccc4ccc(-c5ccccc5)nc4c3)c3c(N)nccn32)C1 [Linsitinib] (partner 1 µM)", "outline": "as §1"}, "[2]": {"compound": "C[C@]12O[C@H](C[C@]1(O)CO)n1c3ccccc3c3c4c(c5c6ccccc6n2c5c31)CNC4=O [Lestaurtinib] + N=C(N)NC(=N)NCCc1ccccc1 [Phenformin] (partner 250 µM)", "outline": "as §1"}},
  "data": [
    {"cell line": "UMC-11", "values": [
      {"measurement": "relative viability", "setting": "TPCA-1 + Foretinib; first compound 0.04 µM", "value": 1.16},
      {"measurement": "relative viability", "setting": "TPCA-1 + Foretinib; first compound 0.1265 µM", "value": 1.02},
      {"measurement": "relative viability", "setting": "TPCA-1 + Foretinib; first compound 0.4 µM", "value": 1.04},
      {"measurement": "relative viability", "setting": "TPCA-1 + Foretinib; first compound 1.265 µM", "value": 0.925},
      {"measurement": "relative viability", "setting": "TPCA-1 + Foretinib; first compound 4 µM", "value": 0.387},
      {"measurement": "relative viability", "setting": "TPCA-1 + Decitabine; first compound 0.04 µM", "value": 0.584},
      {"measurement": "relative viability", "setting": "TPCA-1 + Decitabine; first compound 0.1265 µM", "value": 0.501},
      {"measurement": "relative viability", "setting": "TPCA-1 + Decitabine; first compound 0.4 µM", "value": 0.792},
      {"measurement": "relative viability", "setting": "TPCA-1 + Decitabine; first compound 1.265 µM", "value": 0.613},
      {"measurement": "relative viability", "setting": "TPCA-1 + Decitabine; first compound 4 µM", "value": 0.439},
      {"measurement": "relative viability", "setting": "[1]; first compound 0.005 µM", "value": 1.08},
      {"measurement": "relative viability", "setting": "[1]; first compound 0.01581 µM", "value": 1.06},
      {"measurement": "relative viability", "setting": "[1]; first compound 0.05 µM", "value": 0.575},
      {"measurement": "relative viability", "setting": "[1]; first compound 0.1581 µM", "value": 0.339},
      {"measurement": "relative viability", "setting": "[1]; first compound 0.5 µM", "value": 0.175},
      {"measurement": "relative viability", "setting": "[2]; first compound 0.005 µM", "value": 0.359},
      {"measurement": "relative viability", "setting": "[2]; first compound 0.01581 µM", "value": 0.327},
      {"measurement": "relative viability", "setting": "[2]; first compound 0.05 µM", "value": 0.239},
      {"measurement": "relative viability", "setting": "[2]; first compound 0.1581 µM", "value": 0.176},
      {"measurement": "relative viability", "setting": "[2]; first compound 0.5 µM", "value": 0.144}
    ]}
  ]
}
